Measured values: patent publication US20130123460A1, “PEPTIDE FOR IMPROVING BIOSTABILITY OF BIOACTIVE SUBSTANCE, AND BIOACTIVE SUBSTANCE HAVING IMPROVED BIOSTABILITY” (priority 2010, published 2013)
Entries after “also recorded” stand apart in the source; their conditions may differ. Read-outs that look alike come from different tables or passages of the source. Bridges are numbered along the chain shown (N, C = ends). Where no end group is shown, it is not given here.

Key:
[1] = Plasma stability of amylin complex (remaining rate in rat plasma); format: in vitro ADME, SD rats; conditions: for remaining at 0.5 h, 0.5 μmol/L / remaining at 2 h, 0.5 μmol/L / remaining at 8 h, 0.5 μmol/L: SD
Protocol: Evaluation was performed in a manner in which after the treatment of the amylin or amylin peptide complex with plasma for a pre-determined time, an amount of change of the amylin peptide (complex) undecomposed was measured by an HPLC/MS.

[2] = Plasma stability of GLP-1 peptide complex (remaining rate in rat plasma, HPLC/MS); format: in vitro ADME, SD rats; conditions: for remaining at 48 h, 0.5 μmol/L / remaining at 8 h, 0.5 μmol/L: SD
Text: SD rats were anesthetized with diethyl ether, whole blood was collected and a plasma fraction was separated therefrom.

[3] = target: T1, endogenous GLP-1 receptor (Mus musculus, UniProt O35659); assay: Insulin secretion capacity of GLP-1 peptide complex in MIN 6 cells;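 on all read-outs here: insulin released into the supernatant of MIN 6 cultures quantified by ELISA, absorbance read at 450 nm with 620 nm reference after substrate addition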; format: cell-based; conditions: for Insulin secretion capacity (% of control): 1000 pM, control = native GLP-1 at 1000 pM; for Insulin secretion capacity (activity) compared with native GLP-1, in words: MIN 6 cells, 30, 100, 300 or 1000 pM (FIG. 2, FIG. 3)
T1 construct: expressing an endogenous GLP-1 receptor; endogenous in cells; host or cells: MIN 6 mouse insulinoma cells (obtained from a person)
T1 sequence (O35659 22-463): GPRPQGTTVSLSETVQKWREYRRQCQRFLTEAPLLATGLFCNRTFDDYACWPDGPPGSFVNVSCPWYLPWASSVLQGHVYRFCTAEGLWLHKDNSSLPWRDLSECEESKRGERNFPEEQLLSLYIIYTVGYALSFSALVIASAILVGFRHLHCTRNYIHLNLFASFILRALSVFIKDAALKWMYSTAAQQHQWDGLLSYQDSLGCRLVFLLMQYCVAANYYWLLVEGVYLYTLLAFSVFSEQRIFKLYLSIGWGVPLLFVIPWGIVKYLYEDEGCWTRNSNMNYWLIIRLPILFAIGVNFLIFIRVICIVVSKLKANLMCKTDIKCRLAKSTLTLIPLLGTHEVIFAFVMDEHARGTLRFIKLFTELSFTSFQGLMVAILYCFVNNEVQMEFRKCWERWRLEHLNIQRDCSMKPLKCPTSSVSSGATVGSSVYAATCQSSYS
Protocol: MIN 6 was seeded on a multi-plate, which was cultivated at 37° C. for 48 hours. After that, the culture was washed twice with a KRH buffer solution including 2 mM glucose solution (including NaCl 119 mM, KCl 4.74 mM, CaCl2 2.54 mM, MgCl2 1.19 mM, KH2PO4 1.19 mM, 10 mM HEPES buffer solution pH7.3, and 0.1% BSA), and then it was incubated at 37° C. for one hour. […] A supernatant thereof was recovered, and an amount of insulin secreted was measured. The measurement of the insulin was performed in an enzyme-linked immunosorbent assay (ELISA), and an absorbance was measured at 450 nm (a sub-wavelength: 620 nm) after the addition of a substrate.
EC50 values thereof were calculated in the same manner as in Part 2, and the influence on the bioactivity caused by the addition of the partial peptide of the GA module were inspected in detail.
The analysis was performed using the following calculation formula.

[4] = rat plasma, 0.5 μmol/L, 37° C., 48 hours, relative to 0 hour = 100%, read-out: Remaining rate in plasma after 48 hours (%)
[5] = rat plasma, 0.5 μmol/L, 37° C., 48 hours, relative to 0 hour = 100%

Row | Molecule | Insulin secretion capacity (% of control) ([3]; MIN 6 cells, 15 mM glucose) [%] | remaining at 8 h, 0.5 μmol/L ([2]; rat, plasma) [%] | remaining at 48 h, 0.5 μmol/L ([2]; rat, plasma) [%] | also measured
1 | CC[C@H](C)[C@H](NC(=O)[C@H](C)NC(=O)CNC(=O)[C@H](Cc1ccccc1)NC(=O)[C@H](CC(N)=O)NC(=O)[C@H](CC(N)=O)NC(=O)[C@H](CO)NC(=O)[C@H](CO)NC(=O)[C@H](Cc1c[nH]cn1)NC(=O)[C@@H](NC(=O)[C@H](CC(C)C)NC(=O)[C@H](Cc1ccccc1)NC(=O)[C@H](CC(N)=O)NC(=O)[C@H](C)NC(=O)[C@H](CC(C)C)NC(=O)[C@H](CCCNC(=N)N)NC(=O)[C@H](CCC(N)=O)NC(=O)[C@@H](NC(=O)[C@H](C)NC(=O)[C@@H]1CSSC[C@H](NC(=O)[C@@H](N)CCCCN)C(=O)N[C@@H](CC(N)=O)C(=O)N[C@@H]([C@@H](C)O)C(=O)N[C@@H](C)C(=O)N[C@@H]([C@@H](C)O)C(=O)N1)[C@@H](C)O)C(C)C)C(=O)N[C@@H](CC(C)C)C(=O)N[C@@H](CO)C(=O)N[C@@H](CO)C(=O)N[C@H](C(=O)N[C@@H](CC(N)=O)C(=O)N[C@H](C(=O)NCC(=O)N[C@@H](CO)C(=O)N[C@@H](CC(N)=O)C(=O)N[C@H](C(=O)N[C@@H](Cc1ccc(O)cc1)C(N)=O)[C@@H](C)O)C(C)C)[C@@H](C)O [Comparative Example 16, Amylin(1-37)-NH2] | – | – | – | remaining at 0.5 h, 0.5 μmol/L ([1]; amylin, rat plasma, 0.5 μmol/L, 37° C., 0.5 hour, read-out: Remaining rate in plasma after 0.5 hour (%)): 43%; remaining at 2 h, 0.5 μmol/L ([1]; amylin, rat plasma, 0.5 μmol/L, 37° C., 2 hours, read-out: Remaining rate in plasma after 2 hours (%)): 15%; remaining at 8 h, 0.5 μmol/L ([1]; amylin, rat plasma, 0.5 μmol/L, 37° C., 8 hours, read-out: Remaining rate in plasma after 8 hours (%)): 0%; Remaining rate in plasma after 2 hours (%) ([1]; amylin, rat plasma, 0.5 μmol/L, 37° C., 2 hours): 15%
2 | CC[C@H](C)[C@H](NC(=O)[C@H](Cc1ccccc1)NC(=O)[C@H](CCC(=O)O)NC(=O)[C@H](CCCCN)NC(=O)[C@H](C)NC(=O)[C@H](C)NC(=O)[C@H](CCC(N)=O)NC(=O)CNC(=O)[C@H](CCC(=O)O)NC(=O)[C@H](CC(C)C)NC(=O)[C@H](Cc1ccc(O)cc1)NC(=O)[C@H](CO)NC(=O)[C@H](CO)NC(=O)[C@@H](NC(=O)[C@H](CC(=O)O)NC(=O)[C@H](CO)NC(=O)[C@@H](NC(=O)[C@H](Cc1ccccc1)NC(=O)[C@@H](NC(=O)CNC(=O)[C@H](CCC(=O)O)NC(=O)[C@H](CO)NC(=O)[C@@H](N)Cc1c[nH]cn1)[C@@H](C)O)[C@@H](C)O)C(C)C)C(=O)N[C@@H](C)C(=O)N[C@@H](Cc1c[nH]c2ccccc12)C(=O)N[C@@H](CC(C)C)C(=O)N[C@H](C(=O)N[C@@H](CCCCN)C(=O)NCC(=O)N[C@@H](CC(C)C)C(=O)N[C@H](C(=O)N[C@@H](CC(=O)O)C(=O)N[C@@H](CCC(=O)O)C(=O)N[C@H](C(=O)N[C@@H](CC(C)C)C(=O)N[C@@H](C)C(=O)N[C@@H](C)C(=O)O)[C@@H](C)CC)[C@@H](C)CC)C(C)C [Example 20, [Ser8]-GLP-1(7-35)-GAm(37-44)] | 98 | – | – | remaining at 48 h, 0.5 μmol/L [2, 4]: 79%; Remaining rate in plasma after 8 hours (%) ([2]; rat plasma, 0.5 μmol/L, 37° C., 8 hours, relative to 0 hour = 100%): 125%
3 | AKTVEGVKALIDEILAAKCNTATCATQRLANFLVHSSNNFGAILSSTNVGSNTY-NH2 (disulfide 19-24) [Example 30, GAm(28-44)-Amylin(1-37)-NH2] | – | – | – | remaining at 0.5 h, 0.5 μmol/L ([1]; rat, plasma): 88%; remaining at 2 h, 0.5 μmol/L ([1]; rat, plasma): 67%; remaining at 8 h, 0.5 μmol/L ([1]; rat, plasma): 9%
4 | HAEGTFTSDVSSYLEGQAAKEFIAWLVKGGVKALIDEILA-NH2 [Example 7, GLP-1(7-35)-GAm(33-43)-NH2] | 105 | 94 | 87 | –
5 | HSEGTFTSDVSSYLEGQAAKEFIAWLVKGAKTVEGVKALIDEIL-NH2 [Example 13, [Ser8]-GLP-1(7-35)-GAm(28-42)-NH2] | 105 | 88 | 87 | –
6 | HSEGTFTSDVSSYLEGQAAKEFIAWLVKGAKTVEGVKALIDEILAA [Example 18, [Ser8]-GLP-1(7-35)-GAm(28-44)] | 139 | 99 | 88 | –
7 | HSEGTFTSDVSSYLEGQAAKEFIAWLVKGGVKALIDEILAA-NH2 [Example 9, [Ser8]-GLP-1(7-35)-GAm(33-44)-NH2] | 118 | 104 | 93 | –
8 | HSEGTFTSDVSSYLEGQAAKEFIAWLVKGINNAKTVEGVKALIDEILAALP-NH2 [Example 16, [Ser8]-GLP-1(7-35)-GAm(25-46)-NH2] | 104 | 102 | 93 | –
9 | HSEGTFTSDVSSYLEGQAAKEFIAWLVKGKALIDEILAA-NH2 [Example 4, [Ser8]-GLP-1(7-35)-GAm(35-44)-NH2] | 115 | 77 | 117 | –
10 | HSEGTFTSDVSSYLEGQAAKEFIAWLVKGNAKTVEGVKALIDEILAALP-NH2 [Example 15, [Ser8]-GLP-1(7-35)-GAm(27-46)-NH2] | 106 | 111 | 93 | –
11 | HSEGTFTSDVSSYLEGQAAKEFIAWLVKGTVEGVKALIDEIL-NH2 [Example 12, [Ser8]-GLP-1(7-35)-GAm(30-42)-NH2] | 85 | 105 | 116 | –
12 | HSEGTFTSDVSSYLEGQAAKEFIAWLVKGVEGVKALIDEILAA-NH2 [Example 11, [Ser8]-GLP-1(7-35)-GAm(31-44)-NH2] | 83 | 99 | 92 | –
13 | HSEGTFTSDVSSYLEGQAAKEFIAWLVKGVSDYYKNLINNAKTVEGVKALIDEILAALP-NH2 [Comparative Example 5, [Ser8]-GLP-1(7-35)-GAm(17-46)-NH2, reference compound] | – | – | – | remaining at 8 h, 0.5 μmol/L ([2]; rat plasma, 0.5 μmol/L, 37° C., 8 hours, relative to 0 hour = 100%, read-out: Remaining rate in plasma after 8 hours (%)): 105%; remaining at 48 h, 0.5 μmol/L [2, 4]: 105%; Remaining rate in plasma after 48 hours (%) [2, 5]: 105%; EC50 [3]: > 1 nM; Insulin secretion capacity (activity) compared with native GLP-1, in words [3]: hardly detected; also recorded: remarkably decreased
14 | HSEGTFTSDVSSYLEGQAAKEFIAWLVKGYKNLINNAKTVEGVKALIDEILAALP-NH2 [Comparative Example 6, [Ser8]-GLP-1(7-35)-GAm(21-46)-NH2, reference compound] | 45 | – | 84 | –

More lines, main results first:

Row | Insulin secretion capacity (% of control) ([3]; MIN 6 cells, 15 mM glucose) [%] | remaining at 8 h, 0.5 μmol/L ([2]; rat, plasma) [%] | remaining at 48 h, 0.5 μmol/L ([2]; rat, plasma) [%] | Molecule | also measured
15 | 103 | 86 | 53 | HAEGTFTSDVSSYLEGQAAKEFIAWLVKGGPKALIDEILAA-NH2 [Example 21, GLP-1(7-35)-Gly-Pro-GAm(35-44)-NH2] | –
16 | 123 | 90 | 40 | HAEGTFTSDVSSYLEGQAAKEFIAWLVKGGPSGVKALIDEILAA-NH2 [Example 24, GLP-1(7-35)-Gly-Pro-Ser-GAm(33-44)-NH2] | –
17 | 99 | 98 | 94 | HAEGTFTSDVSSYLEGQAAKEFIAWLVKGGPVKALIDEILAA-NH2 [Example 22, GLP-1(7-35)-Gly-Pro-GAm(34-44)-NH2] | –
18 | 89 | 114 | 102 | HSEGTFTSDVSSYLEGQAAKEFIAWLVKGGVKALIDEILAA [Example 19, [Ser8]-GLP-1(7-35)-GAm(33-44)] | –
19 | 18 | – | – | [Ser8]-GLP-1(7-35)-GAm(1-46)-NH2 [Comparative Example 4, reference compound] | Remaining rate in plasma after 48 hours (%) [2, 5]: 105%; EC50 ([3]; MIN 6 cells, 15 mM glucose, concentration for 50% of maximum activity of native GLP-1 at 1000 pM, read-out: EC50 value (nM), insulin secretion capacity): > 1 nM; Insulin secretion capacity (activity) compared with native GLP-1, in words [3]: remarkably impaired; also recorded: remarkably decreased
